Results as given in patent US20240335431A1, “1-H-PYRROLO[2,3-c]PYRIDINE COMPOUNDS” (Acerta Pharma B.V., priority 2023, published 2024).

Columns and labels:
hERG ion channel = hERG ion channel (Homo sapiens (Human), UniProt Q12809); assay: hERG assay 3, QPatchII 48X, 30 degrees Celsius; assay type: cell-based; details: CHO cells
Experimental: Experiments were performed on the QPatchII 48X(Sophion Biosciences) high throughput patch clamp platform at 30 degrees Celsius using single holes QChips (Sophion Bioscience). Chinese hamster ovary K1 (CHO) cell lines over-expressing the hERG ion channel were used from live culture. All compounds were dispensed as solid stocks in glass vials. Compounds were solubilised to 10 or 50 mM DMSO stocks on the day of experiments, after which dilutions in DMSO we undertaken. Stamps of DMSO stocks were made into an MTP plate using glass vials, after which extracellular solution was backfilled creating testing concentrations with a highest concentration of 40 and 200 μM, respectively. The internal patch clamp solution was KF 60 mM, KCl 70 mM, HEPES 10 mM, EGTA 10 mM, and 5 mM Mg ATP (pH7.2).

hERG = hERG (Homo sapiens (Human), UniProt Q12809); assay: hERG assay 2, QPatch II 48X, room temperature; assay type: cell-based; details: hERG DUO cell line, top 200 μM
Experimental: Experiments were performed on the QPatch II 48X (Sophion Biosciences) high throughput patch clamp platform at room temperature and used single hole Qplates. hERG DUO cell line (BSys) was used. The internal patch clamp solution was KF 60 mM, KCl 70 mM, HEPES 10 mM, EGTA 10 mM, and 5 mM Mg ATP (pH7.2). After sealing and whole cell access was gained the external solution (NaCl 140 mM, KCl 4 mM, HEPES 10 mM, CaCl2 2 mM, MgCl2 1 mM, glucose 5 mM (pH 7.4) was applied twice to establish stable baseline currents. An industry standard +40/−40 mV voltage protocol was applied every 15 seconds. All compounds were tested in a 6-point cumulative assay (final DMSO concentration 0.4-2% depending on stock concentration of compounds). Compounds were dispensed from initial 10 mM or 50 mM DMSO stocks after which DMSO dilutions were undertaken with a top concentration of 200 μM tested. Solvent controls were run in all experiments in line with the DMSO % required. Only wells that passed acceptance criteria for this platform were used in this analysis (500 MegaOhm seal resistance and current size >0.2 nA). Analysis was completed in Prism Graphpad to complete a composite IC50, by plotting % inhibition versus log compound concentration and using a log(inhibitor) vs. response—Variable slope.

muscarinic M2 receptor [1] = target: T1, muscarinic M2 receptor (Homo sapiens (Human), UniProt P08172); assay: Muscarinic M2 receptor binding assay (assay 1); details: [3H]AF-DX 384 2 nM, Cheng Prusoff
Outline: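 Membrane homogenates (60 μg protein) were incubated with 2 nM [3H]AF-DX 384 for 60 min at 22° C in Tris-HCl pH 7.4 with NaCl, KCl, MgCl2 and EDTA; 1 μM atropine defined nonspecific binding. Filtration and scintillation counting gave percent inhibition of specific binding, with Ki by Cheng-Prusoff.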

Menin protein = Menin protein (Homo sapiens, UniProt O00255, DEL460-519); assay: Menin/MLL fluorescence polarization (FP) assay; assay type: binding; details: Menin 2 nM, cRho110-Ahx-MBM1/MBM2 peptide 1 nM
Outline: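 Fluorescence polarization of 1 nM cRho110-labelled MBM1/MBM2 peptide with 2 nM His-tagged Menin in 50 mM Tris pH 7.5, 50 mM NaCl, 1 mM TCEP, 0.01% BGG, 0.01% Brij-35. Compound series: 10-fold dilutions from 10 μM; 480/535 nm, read every 5 min for 180 min. IC50 via one-site fit, normalized to no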

muscarinic M2 receptor [2] = target: T1, muscarinic M2 receptor; assay: Muscarinic M2 receptor functional assay, antagonist effect (assay 2); assay type: cell-based; details: cAMP, 1 μM acetylcholine
Experimental: Thereafter, the reference agonist acetylcholine and the adenylyl cyclase activator NKH 477 were added at respective final concentrations of 1 μM and 5 μM. For basal control measurements, acetylcholine was omitted from the wells containing 10 μM methoctramine. Following 10 minutes incubation at 37° C., the cells were lysed, and the fluorescence acceptor (D2-labeled cAMP) and fluorescence donor (anti-cAMP antibody labelled with europium cryptate) were added. After 60 minutes at room temperature, the fluorescence transfer was measured at λex=337 nm and λem=620 and 665 nm using a microplate reader (Rubystar, BMG). The cAMP concentration was determined by dividing the signal measured at 665 nm by that measured at 620 nm (ratio). The results were expressed as a percent inhibition of the control response to 1 μM acetylcholine. For test compounds and for standard reference antagonist methoctramine, which is tested in each experiment, assays were run in eight-point concentration response mode and IC50 values determined following non-linear regression curve analysis. Curve analysis was completed using software developed at Cerep (Hill software) and validated by comparison with data generated by the commercial software SigmaPlot®4.0 for Windows® (© 1997 by SPSS Inc.).

Menin protein, sequence (O00255 with tags, fused parts or gaps DEL460-519): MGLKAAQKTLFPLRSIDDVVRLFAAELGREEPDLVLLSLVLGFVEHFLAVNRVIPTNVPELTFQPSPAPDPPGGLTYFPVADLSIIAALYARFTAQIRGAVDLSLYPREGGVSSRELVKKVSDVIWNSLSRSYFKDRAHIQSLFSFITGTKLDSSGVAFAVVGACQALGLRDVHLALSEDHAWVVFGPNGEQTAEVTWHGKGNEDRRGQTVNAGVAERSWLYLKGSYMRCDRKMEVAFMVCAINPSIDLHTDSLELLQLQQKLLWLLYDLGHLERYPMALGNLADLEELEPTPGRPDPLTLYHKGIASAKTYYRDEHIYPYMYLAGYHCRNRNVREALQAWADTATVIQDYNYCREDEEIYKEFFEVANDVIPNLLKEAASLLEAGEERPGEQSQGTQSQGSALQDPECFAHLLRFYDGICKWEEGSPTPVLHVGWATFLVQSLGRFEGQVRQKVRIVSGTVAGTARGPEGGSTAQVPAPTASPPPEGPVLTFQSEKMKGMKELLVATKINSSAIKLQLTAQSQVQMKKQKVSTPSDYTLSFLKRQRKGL
T1 sequence (P08172 whole entry): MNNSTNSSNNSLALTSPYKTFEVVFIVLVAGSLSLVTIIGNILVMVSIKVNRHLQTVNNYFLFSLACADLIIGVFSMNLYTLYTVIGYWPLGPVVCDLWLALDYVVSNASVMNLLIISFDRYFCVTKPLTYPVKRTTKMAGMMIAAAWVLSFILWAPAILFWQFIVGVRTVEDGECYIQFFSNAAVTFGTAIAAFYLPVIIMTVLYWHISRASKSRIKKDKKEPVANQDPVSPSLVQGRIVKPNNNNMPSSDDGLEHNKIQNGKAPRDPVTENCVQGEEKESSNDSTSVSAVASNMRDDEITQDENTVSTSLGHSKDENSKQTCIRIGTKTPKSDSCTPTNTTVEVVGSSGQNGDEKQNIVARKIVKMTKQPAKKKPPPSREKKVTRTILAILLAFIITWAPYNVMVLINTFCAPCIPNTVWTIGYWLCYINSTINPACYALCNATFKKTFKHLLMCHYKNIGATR
hERG ion channel, sequence (Q12809 whole entry): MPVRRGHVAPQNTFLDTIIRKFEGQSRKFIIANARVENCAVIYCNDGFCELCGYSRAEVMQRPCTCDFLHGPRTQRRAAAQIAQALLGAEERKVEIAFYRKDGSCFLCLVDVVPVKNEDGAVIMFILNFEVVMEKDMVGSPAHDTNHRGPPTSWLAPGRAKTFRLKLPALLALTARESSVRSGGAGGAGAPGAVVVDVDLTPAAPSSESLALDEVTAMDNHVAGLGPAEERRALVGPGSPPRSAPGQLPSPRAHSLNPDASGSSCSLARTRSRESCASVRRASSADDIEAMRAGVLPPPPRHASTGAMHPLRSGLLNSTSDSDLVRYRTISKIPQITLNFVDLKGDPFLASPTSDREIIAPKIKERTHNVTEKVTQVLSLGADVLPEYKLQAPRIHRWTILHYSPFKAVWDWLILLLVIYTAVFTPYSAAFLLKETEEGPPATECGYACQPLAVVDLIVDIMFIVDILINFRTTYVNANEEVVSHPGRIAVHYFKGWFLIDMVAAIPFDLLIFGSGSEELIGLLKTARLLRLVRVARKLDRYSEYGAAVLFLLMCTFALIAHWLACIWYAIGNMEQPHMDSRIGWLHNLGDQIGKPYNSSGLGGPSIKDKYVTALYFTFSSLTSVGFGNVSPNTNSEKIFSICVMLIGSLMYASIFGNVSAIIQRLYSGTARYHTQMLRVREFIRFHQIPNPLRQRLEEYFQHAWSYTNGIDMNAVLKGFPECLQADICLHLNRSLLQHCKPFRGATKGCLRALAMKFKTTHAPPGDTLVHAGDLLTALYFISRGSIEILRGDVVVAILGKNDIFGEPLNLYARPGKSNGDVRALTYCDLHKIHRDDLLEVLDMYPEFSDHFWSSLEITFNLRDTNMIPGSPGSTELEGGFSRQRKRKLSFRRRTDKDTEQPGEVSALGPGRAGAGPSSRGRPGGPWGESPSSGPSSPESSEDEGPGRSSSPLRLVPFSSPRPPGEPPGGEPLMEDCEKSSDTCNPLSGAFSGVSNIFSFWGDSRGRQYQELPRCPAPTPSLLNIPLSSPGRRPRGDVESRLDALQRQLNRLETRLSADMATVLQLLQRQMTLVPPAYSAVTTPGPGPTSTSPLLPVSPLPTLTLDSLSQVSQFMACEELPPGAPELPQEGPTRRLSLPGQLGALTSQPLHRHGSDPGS
hERG, sequence (Q12809 whole entry): as above

| Compound | IC50 (hERG ion channel) | IC50 (hERG) | Ki (muscarinic M2 receptor [1]) | IC50 (Menin protein) | IC50 (muscarinic M2 receptor [2]) |
| --- | --- | --- | --- | --- | --- |
| Cc1c(C(=O)C2CCN(C(=O)[C@@H]3CCC(C)(C)N3)CC2)c2ccncc2n1-c1ccc(F)cc1C(=O)N(C(C)C)C(C)C (single isomer, unassigned) [Compound 56-2] | 42.9 µM | 138 µM | > 100 µM | 0.043 µM | – |
| Cc1c(C(=O)C2CCN(C(=O)[C@@H]3CCC4(CC4)N3)CC2)c2ccncc2n1-c1ccc(F)cc1C(=O)N1[C@H](C)COC[C@H]1C (single isomer, unassigned) [Example 58-2] | 111 µM | – | 4.2 µM | 0.03 µM | 8.6 µM |
| CC(C)c1ncccc1-c1cc(F)ccc1-n1cc(C(=O)C2CN(C(=O)[C@H]3N[C@@H]4CC[C@H]3C4)C2)c2ccncc21 [Example 10, (1-((1R,3S,4S)-2-Azabicyclo[2.2.1]heptane-3-carbonyl)azetidin-3-yl)(1-(4-fluoro-2-(2-isopropylpyridin-3-yl)phenyl)-1H-pyrrolo[2,3-c]pyridin-3-yl)methanone] | 33.8 µM | 79.1 µM | 10.5 µM | – | – |
| CC(C)N(C(=O)c1cc(F)ccc1-n1cc(C(=O)C2CCN(C(=O)[C@H]3N[C@@H]4CC[C@H]3C4)CC2)c2ccncc21)C(C)C [Example 16, 2-(3-(1-((1R,3S,4S)-2-Azabicyclo[2.2.1]heptane-3-carbonyl)piperidine-4-carbonyl)-1H-pyrrolo[2,3-c]pyridin-1-yl)-5-fluoro-N,N-diisopropylbenzamide] | – | 128 µM | 0.2 µM | – | 1.1 µM |
| CC(C)N(C(=O)c1cc(F)ccc1-n1cc(C(=O)C2CCN(C(=O)[C@H]3NC[C@@H]4C[C@@H]43)CC2)c2ccncc21)C(C)C [Example 19, 2-(3-(1-((1S,2S,5R)-3-Azabicyclo[3.1.0]hexane-2-carbonyl)piperidine-4-carbonyl)-1H-pyrrolo[2,3-c]pyridin-1-yl)-5-fluoro-N,N-diisopropylbenzamide] | – | 128 µM | 1.4 µM | – | 21.3 µM |
| CC(C)N(C(=O)c1cc(F)ccc1-n1cc(C(=O)C2CCN(C(=O)[C@H]3NC4CCC3CC4)CC2)c2ccncc21)C(C)C [Example 20, (S)-2-(3-(1-(2-Azabicyclo[2.2.2]octane-3-carbonyl)piperidine-4-carbonyl)-1H-pyrrolo[2,3-c]pyridin-1-yl)-5-fluoro-N,N-diisopropylbenzamide] | – | > 200 µM | 0.8 µM | 0.022 µM | 5.2 µM |
| CCN(C(=O)c1cc(F)ccc1-n1c(C)c(C(=O)C2CCN(C(=O)[C@H]3NC[C@@H]4C[C@@H]43)CC2)c2ccncc21)C(C)C [Example 47, 2-(3-(1-((1S,2S,5R)-3-Azabicyclo[3.1.0]hexane-2-carbonyl)piperidine-4-carbonyl)-2-methyl-1H-pyrrolo[2,3-c]pyridin-1-yl)-N-ethyl-5-fluoro-N-isopropylbenzamide] | – | 194 µM | 7.3 µM | – | 62.8 µM |
